Laboratory results taken from US20110077248A1, “IMIDAZOPYRIDINE AND RELATED ANALOGS AS SIRTUIN MODULATORS” (Sirtris Pharmaceuticals, Inc., priority 2008, published 2011).

Biological target: T1, SIRT1 (Homo sapiens, UniProt Q96EB6)
T1 construct: His-tag (N); made in house; host or cells: E. coli BL21(DE3), T7-promoter vector
T1 sequence (Q96EB6 1-747): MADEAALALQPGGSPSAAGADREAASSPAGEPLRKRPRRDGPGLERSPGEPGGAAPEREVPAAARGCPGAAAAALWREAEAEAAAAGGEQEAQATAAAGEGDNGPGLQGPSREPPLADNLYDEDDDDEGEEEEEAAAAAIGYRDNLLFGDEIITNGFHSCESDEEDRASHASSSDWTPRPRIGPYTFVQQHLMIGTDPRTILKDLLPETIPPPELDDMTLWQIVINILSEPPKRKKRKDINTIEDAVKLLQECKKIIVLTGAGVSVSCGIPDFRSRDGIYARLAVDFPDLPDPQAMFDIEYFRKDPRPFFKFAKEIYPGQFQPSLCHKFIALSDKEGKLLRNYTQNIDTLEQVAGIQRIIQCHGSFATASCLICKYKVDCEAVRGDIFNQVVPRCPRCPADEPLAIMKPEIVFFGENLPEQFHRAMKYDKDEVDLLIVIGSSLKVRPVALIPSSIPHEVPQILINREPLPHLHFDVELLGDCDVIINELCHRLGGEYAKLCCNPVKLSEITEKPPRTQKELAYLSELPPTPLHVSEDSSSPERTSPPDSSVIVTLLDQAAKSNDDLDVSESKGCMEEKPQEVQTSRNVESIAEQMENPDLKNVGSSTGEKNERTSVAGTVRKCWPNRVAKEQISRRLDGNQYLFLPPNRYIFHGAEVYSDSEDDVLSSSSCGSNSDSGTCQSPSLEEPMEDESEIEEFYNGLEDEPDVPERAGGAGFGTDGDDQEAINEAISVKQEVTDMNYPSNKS
Test: Mass spectrometry based assay for modulators of SIRT1 activity (deacetylation of p53-based acetylated peptide)
Type: biochemical
Details: for EC1.5: concentration of test compound that results in 150% activation of SIRT1, 0.5 μM peptide substrate, 120 μM βNAD+, 10 nM SIRT1, 25 min, 25° C.; for Emax: percent maximum fold activation of SIRT1
Source text: A mass spectrometry based assay was used to identify modulators of SIRT1 activity. The mass spectrometry based assay utilizes a peptide having 20 amino acid residues as follows: Ac-EE-K(biotin)-GQSTSSHSK(Ac)NleSTEG-K(5TMRi)-EE-NH2 (SEQ ID NO: 1) wherein K(Ac) is an acetylated lysine residue and Nle is a norleucine. The peptide is labeled with the fluorophore 5TMR (excitation 540 nm/emission 580 nm) at the C-terminus. The sequence of the peptide substrate is based on p53 with several modifications. In addition, the methionine residue naturally present in the sequence was replaced with the norleucine because the methionine may be susceptible to oxidation during synthesis and purification.
The mass spectrometry assay is conducted as follows: 0.5 μM peptide substrate and 120 μM βNAD+ is incubated with 10 nM SIRT1 for 25 minutes at 25° C. in a reaction buffer (50 mM Tris-acetate pH 8, 137 mM NaCl, 2.7 mM KCl, 1 mM MgCl2, 5 mM DTT, 0.05% BSA). Test compounds may be added to the reaction as described above. The SirT1 gene is cloned into a T7-promoter containing vector and transformed into BL21(DE3). After the 25 minute incubation with SIRT1, 10 μL of 10% formic acid is added to stop the reaction. Reactions are sealed and frozen for later mass spec analysis. Determination of the mass of the substrate peptide allows for precise determination of the degree of acetylation (i.e. starting material) as compared to deacetylated peptide (product).
A control for inhibition of sirtuin activity is conducted by adding 1 μL of 500 mM nicotinamide as a negative control at the start of the reaction (e.g., permits determination of maximum sirtuin inhibition). A control for activation of sirtuin activity is conducted using 10 nM of sirtuin protein, with 1 μL of DMSO in place of compound, to determinine the amount of deacetylation of the substrate at a given timepoint within the linear range of the assay. This timepoint is the same as that used for test compounds and, within the linear range, the endpoint represents a change in velocity.
For the above assay, SIRT1 protein was expressed and purified as follows. The SirT1 gene was cloned into a T7-promoter containing vector and transformed into BL21(DE3). The protein was expressed by induction with 1 mM IPTG as an N-terminal His-tag fusion protein at 18° C. overnight and harvested at 30,000×g. Cells were lysed with lysozyme in lysis buffer (50 mM Tris-HCl, 2 mM Tris[2-carboxyethyl]phosphine (TCEP), 10 μM ZnCl2, 200 mM NaCl) and further treated with sonication for 10 min for complete lysis. The protein was purified over a Ni-NTA column (Amersham) and fractions containing pure protein were pooled, concentrated and run over a sizing column (Sephadex S200 26/60 global). The peak containing soluble protein was collected and run on an Ion-exchange column (MonoQ). Gradient elution (200 mM-500 mM NaCl) yielded pure protein. This protein was concentrated and dialyzed against dialysis buffer (20 mM Tris-HCl, 2 mM TCEP) overnight. The protein was aliquoted and frozen at −80° C. until further use.
Sirtuin modulating compounds that activated SIRT1 were identified using the assay described above and are shown below in Table 1. The EC1.5 values represent the concentration of test compounds that result in 150% activation of SIRT1. The EC1.5 values for the activating compounds are represented by A (EC1.5<1.0 uM), B (EC1.5 1-25 uM), C (EC1.5>25 uM). The percent maximum fold activation is represented by A (Fold activation >200%) or B (Fold Activation <200%). “NT” indicates the compound was not tested in a particular assay.

SMILES | EC1.5 | Emax [%]
O=C(Nc1nccs1)c1cccn2nc(-c3ccc(OCC(O)CO)cc3C(F)F)nc12 (stereo in doubt) [Compound 249, (R)-2-(2-(difluoromethyl)-4-(2,3-dihydroxypropoxy)phenyl)-N-(thiazol-2-yl)-[1,2,4]triazolo[1,5-a]pyridine-8-carboxamide] | C (EC1.5>25 uM) | < 200
O=C(Nc1nccs1)c1cccn2cc(-c3ccccc3)nc12 [Compound 106] | B (EC1.5 1-25 uM) | < 200
O=C(Nc1nccs1)c1cccn2cc(-c3ccccc3C(F)(F)F)nc12 [Compound 148] | C (EC1.5>25 uM) | < 200
O=C(Nc1nc(CN2CCOCC2)cs1)c1nccn2cc(-c3ccccc3C(F)(F)F)nc12 [Compound 258] | A (EC1.5<1.0 uM) | > 200
O=C(Nc1ccccn1)c1cccn2cc(-c3ccc(CN4CCCC4)cc3)nc12 [Compound 253] | B (EC1.5 1-25 uM) | > 200
O=C(Nc1cccc(CN2CCOCC2)n1)c1cccn2cc(-c3ccc(F)cc3C(F)(F)F)nc12 [Compound 238] | A (EC1.5<1.0 uM) | > 200
O=C(Nc1nc(CN2CCOCC2)cs1)c1cccn2cc(-c3cccc(C(F)F)c3)nc12 [Compound 208] | A (EC1.5<1.0 uM) | > 200
O=C(Nc1cccc(OCC(O)CO)c1)c1cccn2cc(-c3cccc(OC(F)(F)F)c3)nc12 (centres unmarked) [Compound 136] | B (EC1.5 1-25 uM) | > 200
O=C(Nc1cccn2cc(-c3cccc(-c4ccccc4)c3)nc12)c1cscn1 [Compound 121] | C (EC1.5>25 uM) | < 200
O=C(Nc1ccccn1)c1cccn2nc(-c3ccc(N4CCOCC4)cc3C(F)(F)F)nc12 [Compound 220] | A (EC1.5<1.0 uM) | > 200
O=C(Nc1ccccn1)c1cccn2nc(-c3ccc(OC[C@@H](O)CO)cc3C(F)F)nc12 [Compound 250] | B (EC1.5 1-25 uM) | > 200
O=C(Nc1cccc(CN2CCOCC2)n1)c1nccn2cc(-c3ccccc3C(F)(F)F)nc12 [Compound 259] | A (EC1.5<1.0 uM) | > 200
O=C(Nc1cccn2cc(-c3cccc(-c4ccccc4)c3)nc12)c1ccncc1 [Compound 124] | C (EC1.5>25 uM) | < 200
O=C(Nc1nc(CN2CCOCC2)cs1)c1cccn2cc(-c3cccc(F)c3F)nc12 [Compound 231] | B (EC1.5 1-25 uM) | < 200
O=C(Nc1cccn2cc(-c3ccccc3)nc12)c1cccc(N2CCCC2)c1 [Compound 131] | C (EC1.5>25 uM) | < 200
O=C(Nc1ccncn1)c1nccn2cc(-c3ccccc3OC(F)(F)F)nc12 [Compound 244] | B (EC1.5 1-25 uM) | > 200
Cc1ccc(NC(=O)c2cccn3cc(-c4ccc(F)cc4C(F)(F)F)nc23)cc1 [Compound 141] | A (EC1.5<1.0 uM) | > 200
O=C(Nc1nccs1)c1nccn2cc(-c3ccccc3C(F)(F)F)nc12 [Compound 171] | A (EC1.5<1.0 uM) | > 200
O=C(Nc1cccn2cc(-c3cccc(OC(F)(F)F)c3)nc12)c1cscn1 [Compound 104] | C (EC1.5>25 uM) | < 200

SMILES | EC1.5 | Emax [%]
O=C(Nc1nccs1)c1cccn2nc(-c3ccc(OCCN4CCOCC4)cc3C(F)F)nc12 [Compound 265, 2-(2-(difluoromethyl)-4-(2-morpholinoethoxy)phenyl)-N-(thiazol-2-yl)-[1,2,4]triazolo[1,5-a]pyridine-8-carboxamide] | B (EC1.5 1-25 uM) | < 200
O=C(Nc1nccs1)c1cccn2nc(-c3ccccc3OC(F)(F)F)nc12 [Compound 227] | B (EC1.5 1-25 uM) | > 200
O=C(Nc1ccccn1)c1cccn2nc(-c3ccc(OCCN4CCOCC4)cc3C(F)F)nc12 [Compound 248] | B (EC1.5 1-25 uM) | > 200
O=C(Nc1ccccn1)c1cccn2cc(-c3ccc(N4CCCC4)cc3)nc12 [Compound 167] | C (EC1.5>25 uM) | < 200
O=C(Nc1cccn2cc(-c3cccc(C(F)(F)F)c3)nc12)c1ccncc1 [Compound 119] | C (EC1.5>25 uM) | < 200
Cc1ccc(-c2nc3c(C(=O)Nc4nc(CN5CCOCC5)cs4)cccn3n2)cn1 [Compound 212] | B (EC1.5 1-25 uM) | < 200
O=C(Nc1ccccn1)c1cccn2nc(-c3cc(N4CCOCC4)ccc3C(F)(F)F)nc12 [Compound 222] | A (EC1.5<1.0 uM) | > 200
O=C(Nc1nccs1)c1cccn2nc(-c3cccc(N4CCOCC4)c3)nc12 [Compound 181] | B (EC1.5 1-25 uM) | < 200
Cc1csc(NC(=O)c2cccn3cc(-c4ccccc4)nc23)n1 [Compound 107] | B (EC1.5 1-25 uM) | > 200
Cc1ccc(-c2nc3c(C(=O)Nc4ccccn4)cccn3n2)cn1 [Compound 211] | C (EC1.5>25 uM) | < 200
O=C(Nc1ccccn1)c1cccn2cc(-c3ccccc3C(F)(F)F)nc12 [Compound 149] | B (EC1.5 1-25 uM) | > 200
O=C(Nc1ccccn1)c1cccn2cc(-c3cccc(C(F)F)c3)nc12 [Compound 207] | A (EC1.5<1.0 uM) | < 200
O=C(Nc1ccccn1)c1nccn2cc(-c3ccc(N4CCCC4)cc3)nc12 [Compound 169] | C (EC1.5>25 uM) | < 200
O=C(Nc1nccs1)c1cccn2cc(-c3ccc(CN4CCOCC4)cc3)nc12 [Compound 262, 2-(4-(morpholinomethyl)phenyl)-N-(thiazol-2-yl)imidazo[1,2-a]pyridine-8-carboxamide] | B (EC1.5 1-25 uM) | > 200
Cc1cc(-c2nc3c(C(=O)Nc4ccccn4)cccn3n2)ccn1 [Compound 215] | B (EC1.5 1-25 uM) | > 200
O=C(Nc1ccccn1)c1cccn2cc(-c3ccc(CN4CCOCC4)cc3)nc12 [Compound 251] | B (EC1.5 1-25 uM) | > 200
O=C(Nc1ccccc1)c1cccn2cc(-c3ccccc3)nc12 [Compound 108] | C (EC1.5>25 uM) | < 200
O=C(Nc1cccn2cc(-c3ccccc3)nc12)c1cnccn1 [Compound 102] | C (EC1.5>25 uM) | < 200
